This experiment concerns compound 48/80-induced lethality. Kind of experiment: Protection of rats from compound 48/80-induced lethality. It counts as in vivo, rats of an inbred Wistar strain. The note with it: Rattus norvegicus, 4 h, read-out: Compound 48/80 lethality test in rats ED50, s.c. or p.o. 1 h before compound 48/80 0.5 mg/kg i.v.; protection of 50% of animals, survival after 4 hours. As for the experimental part:
Protection of rats from compound 48/80-induced lethality
The protection from compound 48/80-induced lethal circulatory collapse appears to be a simple way of evaluating quantitatively the antihistaminic activity of test compounds. Male rats of an inbred Wistar strain, weighing 240-260 g were used in the experiment. After overnight starvation the rats were transferred to conditioned laboratories (temp.=21±1° C., relative humidity=65+5%). The rats were treated subcutaneously or orally with a test compound or with the solvent (NaCl solution, 0.9%). […] Survival after 4 hours is therefore considered to be a safe criterion of a protective effect of drug administration. The ED50 -values of the compounds of formula (I) are listed in the first column of tables 1 to 4. Said ED50 -values are the values in mg/kg body weight at which the tested compounds protect 50% of the tested animals against compound 48/80-induced lethality. The compounds of formula (I) and the pharmaceutically acceptable acid addition salts thereof are also potent serotonin-antagonists. The potency of the subject compounds as serotonin-antagonists is clearly evidenced by the results obtained in the following tests wherein the antagonistic activity of the subject compounds on the effect of serotonin is examined.
With `Fc1ccc(Cn2c(CC3CCNCC3)nc3ccncc32)cc1` [Compound 50, 3-[(4-fluorophenyl)methyl]-2-(4-piperidinylmethyl)-3H-imidazo[4,5-c]-pyridine], the ED50 came out at 0.04 mg/kg.
The figure for `Fc1ccc(Cn2c(CC3CCN(CCNc4ncnc5[nH]cnc45)CC3)nc3ccccc32)cc1` [Compound 370] is 0.02 mg/kg; for `CC1(C)Nc2ccccc2C(=O)N1CCN1CCC(Cc2nc3cccnc3n2Cc2ccccn2)CC1` [Compound 479, 2,3-dihydro-2,2-dimethyl-3-[2-[4-[[3-(2-pyridinylmethyl)-3H-imidazo[4,5-b]-pyridin-2-yl]methyl]-1-piperidinyl]ethyl]-4(1H)-quinazolinone] it is 0.04 mg/kg.
Regarding `Cn1c(=O)c2c(ncn2CCN2CCC(Cc3nc4cccnc4n3Cc3ccco3)CC2)n(C)c1=O` [Compound 176], the ED50 was determined as 0.04 mg/kg.
Regarding `C=CCN1CCC(Cc2nc3ccccc3n2Cc2ccc(F)cc2)CC1` [Compound 144, 1-[(4-fluorophenyl)methyl]-2-[[1-(2-propenyl)-4-piperidinyl]methyl]-1H-benzimidazole], the ED50 is 0.04 mg/kg.
For `c1cnc(NCCN2CCC(Cc3nc4ccccc4n3Cc3cscn3)CC2)nc1` [Compound 338], the ED50 is 0.02 mg/kg.
The figure for `CC(C)N1CCC(Cc2nc3cccnc3n2Cc2ccc(F)cc2)CC1` [Compound 89] is 0.04 mg/kg; for `O=c1[nH]c2ccccc2n1CCCN1CCC(Oc2nc3ccccc3n2Cc2ccc(F)cc2)CC1` [Compound 140, 1-[3-[4-[[1-[(4-fluorophenyl)methyl]-1H-benzimidazol-2-yl]oxy]-1-piperidinyl]propyl]-1,3-dihydro-2H-benzimidazol-2-one] it is 0.04 mg/kg; for `Cc1ccc(Cn2c(CC3CCN(CCO)CC3)nc3ccccc32)cc1` [Compound 113, 4-[[1-[(4-methylphenyl)methyl]-1H-benzimidazol-2-yl]methyl]-1-piperidineethanol] it is 0.08 mg/kg.
For `CN1CCC(Sc2nc3ccccc3n2Cc2ccc(F)cc2)CC1` [Compound 96], the ED50 came out at 0.04 mg/kg.
The figure for `N#CCN1CCC(Cc2nc3ccccc3n2Cc2ccccc2)CC1` [Compound 297] is 0.08 mg/kg; for `O=S(=O)(CCN1CCC(Cc2nc3ccccc3n2Cc2ccc(F)cc2)CC1)c1ccccc1` [Compound 130] it is 0.16 mg/kg.
Take `CC(C)N1CCC(Cc2nc3ccccc3n2Cc2ccc(F)cc2)CC1` [Compound 83]: the ED50 was 0.01 mg/kg.
In the case of `OCCN1CCC(Cc2nc3ccccc3n2Cc2ccccc2)CC1` [Compound 112], the ED50 is 0.08 mg/kg.
The figure for `Fc1ccc(Cn2c(CC3CCN(CCNc4cnccn4)CC3)nc3ccncc32)cc1` [Compound 373, N-[2-[4-[[3-[(4-fluorophenyl)methyl]-3H-imidazo[4,5-c]pyridin-2-yl]methyl]-1-piperidinyl]ethyl]-2-pyrazinamine] is 0.08 mg/kg.
Turning to `Fc1ccc(Cn2c(CC3CCN(C4CCCCC4)CC3)nc3cccnc32)cc1` [Compound 98], the ED50 amounted to 0.04 mg/kg.
`O=c1[nH]c2ccccc2c(=O)n1CCCCN1CCC(Cc2nc3cccnc3n2Cc2ccco2)CC1` [Compound 491, 3-[4-[4-[[3-(2-furanylmethyl)-3H-imidazo[4,5-b]pyridin-2-yl]methyl]-1-piperidinyl]butyl]-2,4-(1H,3H)-quinazolinedione]: the ED50 worked out at 0.16 mg/kg.
With `Cc1nc(CCN2CCC(Cc3nc4ccccc4n3Cc3ccc(F)cc3)CC2)cs1` [Compound 459, 1-[(4-fluorophenyl)methyl]-2-[[1-[2-(2-methyl-4-thiazolyl)ethyl]-4-piperidinyl]methyl]-1H-benzimidazole], the ED50 worked out at 0.02 mg/kg.
As for `CCOC(=O)N1CCC(Cc2nc3ccccc3n2Cc2cccs2)CC1` [Compound 59, ethyl 4-[[1-(2-thienylmethyl)-1H-benzimidazol-2-yl]methyl]-1-piperidinecarboxylate], the ED50 came out at 0.02 mg/kg.
Turning to `Fc1ccc(Cn2c(CC3CCN(CCNCc4ccccn4)CC3)nc3ccccc32)cc1` [Compound 427, N-[2-[4-[[1-[(4-fluorophenyl)methyl]-1H-benzimidazol-2-yl]methyl]-1-piperidinyl]ethyl]-2-pyridinemethanamine], the ED50 is 0.16 mg/kg.
Take `CNc1ccccc1C(=O)NCCN1CCC(Cc2nc3cccnc3n2Cc2ccc(F)cc2)CC1` [Compound 470]: the ED50 amounted to 0.04 mg/kg.
`C=CCN1CCC(Cc2nc3cccnc3n2Cc2ccc(F)cc2)CC1` [Compound 142, 3-[(4-fluorophenyl)methyl]-2-[[1-(2-propenyl)-4-piperidinyl]methyl]-3H-imidazo-[4,5-b]pyridine]: the ED50 worked out at 0.02 mg/kg.
For the compound `C[C@@H]1CN(CCNc2ncccn2)CC[C@@H]1Oc1nc2ccccc2n1Cc1ccc(F)cc1` (relative stereo) [Compound 349, cis-N-[2-[4-[[1-[(4-fluorophenyl)methyl]-1H-benzimidazol-2-yl]oxy]-3-methyl-1-piperidinyl]ethyl]-2-pyrimidinamine], the ED50 is 0.08 mg/kg.
Take `O=c1oc2ccccc2cc1CCN1CCC(Cc2nc3ccccc3n2Cc2ccc(F)cc2)CC1` [Compound 161]: the ED50 is 0.04 mg/kg.
Take `Cc1ccc(Cn2c(CC3CCNCC3)nc3ccccc32)cc1` [Compound 42, 1-[(4-methylphenyl)methyl]-2-(4-piperidinylmethyl)-1H-benzimidazole]: the ED50 was 0.02 mg/kg.
For `OC(COc1ccc2ccccc2c1)CN1CCC(Cc2nc3ccccc3n2Cc2ccc(F)cc2)CC1` (stereo not drawn) [Compound 116, 4-[[1-[(4-fluorophenyl)methyl]-1H-benzimidazol-2-yl]methyl]-α-[(2-naphthalenyloxy)methyl]-1-piperidineethanol], the ED50 is 0.16 mg/kg.
With `Cc1nc2ccccn2c(=O)c1CCN1CCC(Cc2nc3ccccc3n2Cc2cscn2)CC1` [Compound 261] the figure was 0.08 mg/kg; with `O=c1oc2ccccc2cc1CCN1CCC(Cc2nc3ccccc3n2Cc2cscn2)CC1` [Compound 265], 0.02 mg/kg.
Turning to `CN1CCC(Oc2nc3ccccc3n2Cc2ccc(F)cc2)CC1` [Compound 85], the ED50 was found to be 0.01 mg/kg.
Consider `COc1ccc(CCN2CCC(Cc3nc4ccccc4n3Cc3cccs3)CC2)cc1` [Compound 232], for which the ED50 is 0.08 mg/kg.
For the compound `COc1ccc(Cn2c(CC3CCN(CC#N)CC3)nc3ccccc32)cc1` [Compound 293], the ED50 came out at 0.08 mg/kg.
With `Cc1nc2scc(C)n2c(=O)c1CCN1CCC(Cc2nc3ccccc3n2Cc2ccco2)CC1` [Compound 216], the ED50 turned out to be 0.04 mg/kg.
Consider `NC(=O)CN1CCC(Cc2nc3ccccc3n2Cc2ccc(F)cc2)CC1` [Compound 149, 4-[[1-[(4-fluorophenyl)methyl]-1H-benzimidazol-2-yl]methyl]-1-piperidineacetamide], for which the ED50 was found to be 0.04 mg/kg.
On to `Nc1ccccc1C(=O)NCCN1CCC(Cc2nc3cccnc3n2Cc2ccco2)CC1` [Compound 473, 2-amino-N-[2-[4-[[3-(2-furanylmethyl)-3H-imidazo[4,5-b]pyridin-2-yl]methyl]-1-piperidinyl]ethyl]benzamide], for which the ED50 amounted to 0.02 mg/kg.
Turning to `Cc1ccc(Cn2c(CC3CCN(CCNc4nccs4)CC3)nc3ccccc32)cc1` [Compound 364], the ED50 came to 0.04 mg/kg.
The figure for `O=c1[nH]c2ccccc2n1CCCN1CCC(Cc2nc3ccccc3n2Cc2ccco2)CC1` [Compound 139, 1-[3-[4-[[1-(2-furanylmethyl)-1H-benzimidazol-2-yl]methyl]-1-piperidinyl]propyl]-1,3-dihydro-2H-benzimidazol-2-one] is 0.08 mg/kg.
Regarding `Fc1ccc(Cn2c(CC3CCN(CCNc4nc5ccccc5[nH]4)CC3)nc3cccnc32)cc1` [Compound 329, N-[2-[4-[[3-[(4-fluorophenyl)methyl]-3H-imidazo[4,5-b]pyridin-2-yl]methyl]-1-piperidinyl]ethyl]1H-benzimidazol-2-amine], the ED50 came out at 0.31 mg/kg.
`Fc1ccc(Cn2c(CC3CCN(Cc4ccccc4)CC3)nc3cccnc32)cc1` [Compound 8, 3-[(4-fluorophenyl)methyl]-2-[[1-(phenylmethyl)-4-piperidinyl]-methyl]-3H-imidazo[4,5-b]pyridine]: the ED50 turned out to be 0.04 mg/kg.
For `CN(CCN1CCC(Cc2nc3ccccc3n2Cc2ccc(F)cc2)CC1)Cc1ccccc1` [Compound 512], the ED50 came to 0.08 mg/kg.
With `Fc1ccc(Cn2c(CC3CCN(CCNc4cccnn4)CC3)nc3ccccc32)cc1` [Compound 500, N-[2-[4-[[1-[(4-fluorophenyl)methyl]-1H-benzimidazol-2-yl]methyl]-1-piperidinyl]ethyl]-3-pyridazinamine], the ED50 worked out at 0.01 mg/kg.
In the case of `CSc1nc2cncnc2n1CCN1CCC(Cc2nc3ccccc3n2Cc2ccc(F)cc2)CC1` [Compound 507, 9-[2-[4-[[1-[(4-fluorophenyl)methyl]-1H-benzimidazol-2-yl]methyl]-1-piperidinyl]ethyl]-8-(methylthio)-9H-purine], the ED50 is 0.16 mg/kg.
For the compound `OCCN1CCC(Oc2nc3ccccc3n2Cc2ccc(F)cc2)CC1` [Compound 105, 4-[[1-[(4-fluorophenyl)methyl]-1H-benzimidazol-2-yl]oxy]-1-piperidineethanol], the ED50 was 0.01 mg/kg.
Regarding `Cc1nc2ccccn2c(=O)c1CCN1CCC(Cc2nc3cccnc3n2Cc2ccccn2)CC1` [Compound 256], the ED50 was determined as 0.08 mg/kg.
`Cn1c(=O)n(CCN2CCC(Cc3nc4ccccc4n3Cc3ccco3)CC2)c(=O)c2ccccc21` [Compound 221]: the ED50 was found to be 0.04 mg/kg.
In the case of `c1ccc(Cn2c(CC3CCN(CCNc4ncccn4)CC3)nc3ccccc32)cc1` [Compound 344], the ED50 amounted to 0.02 mg/kg.

For the origin of these results see patent US4839374A, “4-((Bicyclic heterocyclyl)-methyl and -hetero)-piperidines” (Janssen Pharmaceutica, N.V., priority 1987, dated 1989).
